The source of these data is US7029868B2, “Cell fusion assays using fluorescence resonance energy transfer” (Merck & Co., Inc., priority 2000, dated 2006).

Assay [1] has as its system HIV-1. The following applies: SCID-hu mice; Datema et al., 1996; cited from earlier work.
Assay [2] relates to HIV-1. The following applies: certain cultured cells; Cocchi et al., 1995; cited from earlier work.
The test system of assay [3] is fusion mediated by CD4, CXCR4, and the HIV-1 Env protein gp143. Briefly: CHO cell/Jurkat cell fusion assay, β-lactamase/CCF2 FRET readout. Type of assay: cell-based. The following applies: CHO gp143/HXB2 cells with Jurkat β-lactamase cells.
Experimental: Jurkat cells expressing β-lactamase (and which naturally express CXCR4 and CD4) were added to the CHO cells and incubated at 37° C. for a period sufficient to allow fusion to occur. The non-fused cells were removed by washing and the fluorogenic 1β-lactamase substrate CCF2/AM was added to the remaining cells. After a 1 hour incubation at room temperature, cell fusion was measured by fluorescence on a fluorescence plate reader. The ratio of emission of the donor dye (7-hydroxycoumarin) over emission of the acceptor dye (fluorescein) was measured.
Fusion is measured by observing the ratio of blue emission (460 nm) to green emission (530 nm). A high ratio indicates more fusion; a low ratio indicates less fusion.
CHO cells expressing gp143/HXB2 were plated in 96-well black, clear-bottom plates (Costar catalogue number 3603) at 5×10^4 cells per well in 200 μl of medium per well. The medium was Iscove's Modified Dulbecco's Medium (Gibco catalogue number 12440-046) supplemented with: 10% fetal bovine serum, G418 (1 mg/ml), 1 mg/ml penicillin/streptomycin (Gibco catalogue number 15140-122), glutamine (2 mM), and HT (ATCC 71-X).
The cells were incubated overnight at 37° C. […]
The plates were read on a Cytofluor II fluorescence plate reader (PerSeptive Biosystems) at 2 scans/cycle. […]

Take `c1cc(CN2CCCNCCNCCCNCC2)ccc1CN1CCCNCCNCCCNCC1` [AMD3100]: the “inhibition of HIV-1 replication” value in assay [1] is on record as “inhibits HIV-1 replication”.
RANTES: the “suppression of HIV-1 replication” value in assay [2] is recorded as “able to suppress HIV-1 replication”.
Take “SDF-1: the natural ligand for CXCR4 (PeproTech Inc.); a chemokine”: the “inhibition of fusion (in words)” value in assay [3] was “dose-dependent inhibition of fusion”.
